Among the test systems are SF-295 CNS; UACC-257 melanoma; HCC-2998 colon; KM12 colon; SF-268 CNS; NCI/ADR-RES ovarian; HCT-116 colon; MDA-MB-435; COLO 205 colon; SR leukemia.
Holding throughout (assay): DTP human tumour cell line panel, 48 h

Each structure is given as a SMILES string.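 Tested at 5 concentrations; 48 h exposure; 96-well plates; endpoints linearly interpolated, else capped at highest concentration. The concentration for full growth arrest is given as TGI.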 Bounds are passed on as bounds.

For orientation: TGI means the concentration at which net growth stops. Higher therefore signals less potent growth arrest. For `CC(C)=CCC12Cc3ccc(O)cc3C(C(C)CN1)C2C` (stereo not given), the TGI in the test on SF-295 CNS was above 100 µM; in the test on UACC-257 melanoma, above 100 µM; in the test on HCC-2998 colon it was 48.2 µM; in the test on KM12 colon, above 100 µM; in the test with SF-268 CNS, above 100 µM; in the test on NCI/ADR-RES ovarian, above 100 µM. For the same compound, the concentration for total growth inhibition (TGI) in the test on HCT-116 colon, with MDA-MB-435, in the test on COLO 205 colon and with SR leukemia was above 100 µM throughout.
As for `COC(=O)C1=C(C)NC(C)=C(C(=O)OC)C1c1cccc(N=O)c1`, the TGI is above 100 µM in the test with SF-295 CNS; 30.2 µM in the test on UACC-257 melanoma; 45.9 µM in the test on HCC-2998 colon; 30.2 µM in the test on KM12 colon; 30.8 µM in the test on SF-268 CNS; 51 µM with NCI/ADR-RES ovarian. The TGI in the test with HCT-116 colon was 23.9 µM; with MDA-MB-435, 29.7 µM; in the test on COLO 205 colon, 32.6 µM; in the test on SR leukemia, above 100 µM.
With `Cc1ccc(C(=O)Cc2nc3c([nH]c2=O)c(C)nn3-c2ccccc2)c(C)c1`, the total growth inhibition concentration (TGI) with SF-295 CNS, in the test on UACC-257 melanoma, in the test with HCC-2998 colon, in the test on KM12 colon, in the test with SF-268 CNS and with NCI/ADR-RES ovarian was above 10 µM each time. In addition, the total growth inhibition concentration (TGI) in the test with HCT-116 colon, in the test on MDA-MB-435, with COLO 205 colon and with SR leukemia was above 10 µM each time.
With `O=C(OC12CC3CC(CC(C3)C1)C2)c1ccc(NCc2cc(O)ccc2O)cc1`, the TGI in the test with SF-295 CNS stood at 7.5 µM; in the test on UACC-257 melanoma, 2.98 µM; with HCC-2998 colon, 3.75 µM; with KM12 colon, 5.19 µM; in the test on SF-268 CNS, 5.69 µM; with NCI/ADR-RES ovarian, 2.76 µM. Besides, the TGI in the test on HCT-116 colon was 5.28 µM; with MDA-MB-435, 4.45 µM; with COLO 205 colon, 1.12 µM; in the test on SR leukemia it was 0.907 µM.
`CCC(=O)Nc1ccc(NS(=O)(=O)c2ccc(Cl)cc2)cc1`: the total growth inhibition concentration (TGI) in the test with SF-295 CNS, in the test on UACC-257 melanoma, in the test on HCC-2998 colon, in the test on KM12 colon, with SF-268 CNS and in the test on NCI/ADR-RES ovarian was above 100 µM throughout. The total growth inhibition concentration (TGI) with HCT-116 colon, in the test with MDA-MB-435, with COLO 205 colon and with SR leukemia was above 100 µM throughout.
With `CCN(CC)c1ccc(NC(=S)NN(C)C)cc1`, the concentration for total growth inhibition (TGI) in the test with SF-295 CNS, with UACC-257 melanoma, in the test with HCC-2998 colon, in the test with KM12 colon, with SF-268 CNS and in the test on NCI/ADR-RES ovarian was above 10 µM throughout. In addition, the TGI in the test on HCT-116 colon, in the test with MDA-MB-435, in the test on COLO 205 colon and with SR leukemia was above 10 µM throughout.
Consider `O=C1c2cccnc2S(=O)(=O)N1c1ccc([N+](=O)[O-])cc1`, for which the TGI in the test on SF-295 CNS, in the test on UACC-257 melanoma, in the test with HCC-2998 colon, in the test with KM12 colon, in the test with SF-268 CNS and with NCI/ADR-RES ovarian was above 100 µM throughout. For the same compound, the total growth inhibition concentration (TGI) in the test with HCT-116 colon, with MDA-MB-435, with COLO 205 colon and in the test on SR leukemia was above 100 µM each time.
For the compound `Cc1cn(CCCCCOC(=O)NC(CCCNC(N)=O)C(=O)O)c(=O)[nH]c1=O` (stereo not given), the TGI with SF-295 CNS, with UACC-257 melanoma, with HCC-2998 colon, in the test on KM12 colon, in the test with SF-268 CNS and in the test with NCI/ADR-RES ovarian was above 100 µM in each case. For the same compound, the TGI in the test on HCT-116 colon, in the test with MDA-MB-435, in the test on COLO 205 colon and in the test on SR leukemia was above 100 µM in each case.
Consider `CC1(C)OC[C@@H](C[C@H](O)COCc2ccccc2)O1`, for which the TGI in the test on SF-295 CNS, in the test with UACC-257 melanoma, in the test on HCC-2998 colon, in the test on KM12 colon, in the test with SF-268 CNS and in the test on NCI/ADR-RES ovarian was above 100 µM throughout. The total growth inhibition concentration (TGI) with HCT-116 colon, with MDA-MB-435, in the test with COLO 205 colon and with SR leukemia was above 100 µM each time.

For the origin of these results see PubChem BioAssay (NCI).
